Experimental data taken from PubChem BioAssay AID2823 (Broad Institute, 2010).
The source made the active and inactive calls. No rule for the calls is given here.

target: RanGTP-importin-beta complex (human Ran / KPNB1); assay: Ran–importin-beta interaction inhibitors, confirmation, biochemical, FRET, CFP/YFP, cell-free homogeneous (AID 2823); conditions: CFP-Ran/YFP-importin-beta FRET ratio

Row | SMILES | IC50
1 | Nc1ccc(C2(c3ccc(N)cc3)CN3CCC2CC3)cc1 | > 50 µM (inactive)
2 | Cc1cc(CNC(=O)COc2ccc(F)cc2)c2ccccc2n1 | > 50 µM (inactive)
3 | O=C(CCN1C(=O)COc2ccccc21)N1CCCCC1 | > 50 µM (inactive)
4 | COc1ccc2cc(C(=O)N/N=C/c3sc4ccccc4c3O)ccc2c1 | > 50 µM (inactive)
5 | CN=C(Nc1cc(C)nn1CCC#N)c1ccccc1 | > 50 µM (inactive)
6 | Cc1onc(-c2ccccc2)c1C(=O)Nc1cccc2nsnc12 | 33.3 µM
7 | CC1(C)CC(=O)C=C(NNC(=O)C2CCCCC2)C1 | > 50 µM (inactive)
8 | Cc1ccccc1/C=N/Nc1ccnc2cc(Cl)ccc12 | > 50 µM (inactive)
9 | CCOC(=O)c1ccc2[nH]cc(C(C)=O)c(=O)c2c1 | 12.6 µM
10 | CC(C)n1c(O)c(C2c3cc(Cl)ccc3Oc3[nH]c(=O)n(C(C)C)c(=O)c32)c(=O)[nH]c1=O (stereo not given) | > 50 µM (inactive)
11 | O=C1/C(=C/c2cccs2)Sc2ccccc21 | > 50 µM (inactive)
12 | COC(=O)c1c(NC(NC(=O)c2ccccc2)(C(F)(F)F)C(F)(F)F)sc2c1CCN(C)C2 | 35.8 µM
13 | N#CC1=C(N)SC(N)=C(C#N)C1c1cccc(Oc2ccccc2)c1 | > 50 µM (inactive)
14 | Nc1nc(CSc2nnnn2-c2ccc(Cl)cc2)nc(N2CCOCC2)n1 | > 50 µM (inactive)
15 | COc1cc(NC(=O)Cn2ncc(Cl)c(Cl)c2=O)c(C)cc1[N+](=O)[O-] | > 50 µM (inactive)
16 | CCOC(=O)CNC(=O)C1CCCN(c2ncccn2)C1 (stereo not given) | > 50 µM (inactive)
17 | CCOC(=O)c1ccc(NC(=O)CSc2nnc(C3CCCCC3)n2C)cc1 | > 50 µM (inactive)
18 | Cc1cccc2cc(C#N)c(NCCCn3ccnc3)nc12 | 19.2 µM
19 | Clc1cccc(-c2ccc(C=Nc3ccc(N4CCOCC4)cc3)o2)c1Cl | > 50 µM (inactive)
20 | CCCOc1ccc(C2C(C(=O)OC)=CN(CCOC)C=C2C(=O)OC)cc1 | 12.3 µM
21 | COCC(C)OC(=O)c1c(N)n(CC(C)C)c2nc3ccccc3nc12 (stereo not given) | 28.5 µM
22 | COc1cc(C(=O)NCCNc2nc3cc(C)ccc3cc2C#N)cc(OC)c1OC | 34.6 µM
23 | CCCCc1cc(=O)oc2c(CN3CCCC3)c(O)c(Cl)cc12 | 23 µM
24 | CCN1/C(=C/C=C/c2sc3ccccc3[n+]2CC)Sc2ccccc21 | 16.6 µM
25 | Cc1cccc(N2CCN(C(=O)C3COc4ccccc4O3)CC2)c1C (stereo not given) | > 50 µM (inactive)
26 | CCc1cc(=O)oc2c(CN3CCN(C)CC3)c(O)c(Cl)cc12 | 27.1 µM
27 | O=C1C=C(Nc2ccc(Cl)cc2Cl)CC(c2ccco2)C1 (stereo not given) | > 50 µM (inactive)

Row | SMILES | IC50
28 | Cc1ccc(S(=O)(=O)Nc2nc3ccccc3nc2NCc2ccco2)cc1 | 18.2 µM
29 | Cc1cccc(-n2c(C)cc(/C=C3\C(=N)N4N=C(CC(C)C)SC4=NC3=O)c2C)c1 | 10.6 µM
30 | COc1ccc(C(=O)O)cc1S(=O)(=O)N(C)C | > 50 µM (inactive)
31 | Cc1cc(C)c2c(n1)nn1c(NCCCN(C)C)cc(C)nc21 | 22.3 µM
32 | CC(C)Cc1nn2c(N)c(/C=C3\C=Nc4ccccc43)c(=O)nc2s1 | > 50 µM (inactive)
33 | Cc1ccc2nc(/C(C#N)=C/c3ccc(O)c(O)c3)[nH]c2c1 | > 50 µM (inactive)
34 | COc1ccc(-c2nc(/C=C3\C(C)=Nc4ccccc43)c(O)o2)cc1 | > 50 µM (inactive)
35 | CCCCc1cc(=O)oc2c(C)c(OCC(=O)NCc3ccccn3)ccc12 | > 50 µM (inactive)
36 | CCCOc1ccc(Cn2ccnc2)cc1[N+](=O)[O-] | > 50 µM (inactive)
37 | COc1cc(C(=O)N2CCCN(c3nc4cc(C)ccc4cc3C#N)CC2)cc(OC)c1OC | 10.9 µM
38 | COC(=O)C1=C(C)NC(C)=C(C(=O)OC)C1C(=O)OC(C)C(=O)c1ccccc1 (stereo not given) | > 50 µM (inactive)
39 | O=c1[nH]c(Nc2ccccc2Cl)cc2ccccc12 | > 50 µM (inactive)
40 | NS(=O)(=O)c1ccc(CCNC(=O)C2CCN(S(=O)(=O)c3ccc(Br)s3)CC2)cc1 | > 50 µM (inactive)
41 | COc1ccc(-c2ccc(-c3noc(-c4ccccc4C)n3)c(OC)n2)cc1 | > 50 µM (inactive)
42 | COCCNC(=O)/C(C#N)=C/c1c(N2CCN(c3ccc(OC)cc3)CC2)nc2c(C)cccn2c1=O | 39.2 µM
43 | COc1ccc(Cl)cc1S(=O)(=O)Nc1noc2ccccc12 | > 50 µM (inactive)
44 | Cc1c(O)ccc2c3c(c(=O)oc12)CCC(C)C3 (stereo not given) | 11.9 µM
45 | Clc1ccc(-c2ncc3ccccn23)cc1 | > 50 µM (inactive)
46 | Cc1cc(Cl)c(S(=O)(=O)N2CCCC2)cc1OCC(=O)NC1CCCCC1 | > 50 µM (inactive)
47 | CC(C)(C)c1ccc(S(=O)(=O)NCC(=O)N2CCN(C(=O)c3ccco3)CC2)cc1 | > 50 µM (inactive)
48 | COCCCn1c(=N)c(C(=O)NCc2ccc3c(c2)OCO3)cc2c(=O)n3ccccc3nc21 | 28.4 µM
49 | CCNc1nnc(CSc2nc3ccccc3s2)s1 | > 50 µM (inactive)
50 | N#Cc1c(N)n(CCNC(=O)c2ccc(Cl)cc2)c2nc3ccccc3nc12 | 7.21 µM
51 | N#C/C(=C\c1ccc(O)c(Br)c1)C(=O)NCc1ccccc1 | 25.8 µM
52 | COc1ccc(NC(=O)c2ccc3snnc3c2)cc1 | > 50 µM (inactive)
53 | Nc1c(C(=O)Nc2ccccc2)c2nc3ccccc3nc2n1CCCN1CCOCC1 | 41.7 µM
54 | CC1=Nc2ccccc2/C1=C\c1nc(-c2ccc(F)cc2)oc1O | > 50 µM (inactive)

Row | SMILES | IC50
55 | O=c1cn[nH]c2ccccc12 | > 50 µM (inactive)
56 | CCCNS(=O)(=O)c1ccc2c(c1)CCCN2C(C)=O | > 50 µM (inactive)
57 | COc1ccc(-n2c(N)c(C(=O)NCc3ccco3)c3nc4ccccc4nc32)c(OC)c1 | 21.9 µM
58 | CCOCCCn1c(=N)c(C(=O)NCc2ccc3c(c2)OCO3)cc2c(=O)n3cccc(C)c3nc21 | 14.9 µM
59 | O=C(Cn1nnc(-c2ccncc2)n1)NCCc1ccccc1 | > 50 µM (inactive)
60 | O=c1cc(N2CCN(Cc3ccccc3)CC2)[nH]c(=O)n1-c1ccc(Br)cc1 | > 50 µM (inactive)
61 | O=C(Nc1cccc(-c2nc3ccccc3s2)c1)c1cccs1 | > 50 µM (inactive)
62 | Cc1cccn2c(=O)c(/C=C(\C#N)C(N)=O)c(Oc3ccccc3)nc12 | 1.96 µM
63 | CCOC(=O)C1CCN(C(=O)COC(=O)c2ccc3[nH]c4c(c3c2)CCCC4)CC1 | > 50 µM (inactive)
64 | COC(=O)C1=C(C)NC2=C(C(=O)CCC2)C1c1cccc(C)n1 (stereo not given) | 25.5 µM
65 | COCCCn1c(N)c(C(=O)Nc2ccccc2)c2nc3ccccc3nc21 | 40.8 µM
66 | COc1ccc(C(=O)N/N=C/c2c(CO)cnc(C)c2O)cc1 | 3.13 µM
67 | CCOC(=O)C1=C(N)Oc2ccc3ccccc3c2C1c1ccc(O)c(OC)c1 (stereo not given) | > 50 µM (inactive)
68 | C=C(C)Cn1c(SCC(=O)O)nnc1-c1ccc(OC)cc1 | > 50 µM (inactive)
69 | Cc1c(CC(=O)NCC(=O)N[C@H](Cc2ccccc2)C(=O)O)c(=O)oc2cc(O)ccc12 | 46.2 µM
70 | CCN1CCN(c2cc(=O)n(Cc3ccc(F)cc3)c(=O)[nH]2)CC1 | > 50 µM (inactive)
71 | Cc1cc(/C=c2/sc3nc4ccccc4n3c2=O)c(C)n1-c1ccccn1 | > 50 µM (inactive)
72 | CC(C)(C)n1cnc2cc(NCc3ccc(Br)cc3)ccc21 | > 50 µM (inactive)
73 | Cn1c(N)c(C(=O)COC(=O)C2(c3ccc(F)cc3)CCCC2)c(=O)n(C)c1=O | > 50 µM (inactive)
74 | COc1cc(C2C3CN(C)CC=C3C(C#N)=C(N)C2(C#N)C#N)ccc1OC(C)C (stereo not given) | 12.1 µM
75 | CC1(C)CC(=O)C=C(Nc2ccc(S(N)(=O)=O)cc2)C1 | > 50 µM (inactive)
76 | COC(=O)C1=CN(c2ccc(OC)cc2)C=C(C(=O)OC)C1c1cccc(F)c1 | 35.2 µM
77 | Cc1c(NC2=CC(=O)CCC2)c(=O)n(-c2ccccc2)n1C | > 50 µM (inactive)
78 | CC(C)Sc1nnc(CNC(=O)C23CC4CC(CC(C4)C2)C3)n1C1CCCCC1 | > 50 µM (inactive)
79 | CCOC(=O)/C(C#N)=C\c1ccc(N2CCN(C)CC2)cc1 | 15 µM
80 | O=C(Nc1cnc2ccccc2c1)c1cccc(-n2cnnn2)c1 | > 50 µM (inactive)
81 | CC(C)Sc1nc(N2CCOCC2)c2c3c(sc2n1)COC(C)(C)C3 | > 50 µM (inactive)

Row | SMILES | IC50
82 | Cn1c(=O)[nH]c2c(nc(-c3ccc(Cl)cc3)n2C)c1=O | 26.1 µM
83 | CNS(=O)(=O)c1cc(OC)c(OC)cc1CC(=O)OC | > 50 µM (inactive)
84 | CCCN1CCC2(CC1)C(C#N)=C(N)Oc1c2sc2nc(C)cc(C)c12 | > 50 µM (inactive)
85 | Cc1ccc(Nc2nc(N)[nH]c(=O)c2N=O)cc1 | 16.1 µM
86 | Cc1nc2nc(CCNS(=O)(=O)c3ccc(Cl)cc3)cn2nc1C | 41.2 µM
87 | CCC(=O)NCCNc1nc2cc(C)c(C)cc2cc1C#N | 16 µM
88 | COc1ccccc1NC(=O)c1cc2ccccc2nc1C | > 50 µM (inactive)
89 | Cc1cc(C)c(C2=CC(c3ccccc3)n3ncnc3N2)cc1C (stereo not given) | 38.5 µM
90 | CN1CCN(C(=O)c2cc3nc(-c4ccccc4)cc(C(F)(F)F)n3n2)CC1 | > 50 µM (inactive)
91 | Cc1ccc(NC(=S)NCCN2CCOCC2)cc1 | > 50 µM (inactive)
92 | CCOC(=O)CNc1ncc([N+](=O)[O-])cc1C#N | > 50 µM (inactive)
93 | Cc1c(CC(=O)N2CCN(C(=O)C3COc4ccccc4O3)CC2)c(=O)oc2c(C)c(O)ccc12 (stereo not given) | 20.8 µM
94 | COc1ccc(Cn2c(=N)c(C(=O)NC3CCCCC3)cc3c(=O)n4ccccc4nc32)cc1 | 47.7 µM
95 | CCOC(=O)C/C(=N\Nc1ncnc2ccccc12)c1ccccc1 | > 50 µM (inactive)
96 | Cc1ccc(C(=O)NNc2c3ccccc3nc3ccccc23)cc1 | > 50 µM (inactive)
97 | NS(=O)(=O)c1cccc(NC(=O)CCSc2ccc(Cl)cc2)c1 | > 50 µM (inactive)
98 | Cn1c(SCc2cccc([N+](=O)[O-])c2)nc2c(c1=O)SCC2 | > 50 µM (inactive)
99 | CN(C)S(=O)(=O)c1cccc(NC(=O)CNC2CCCCC2)c1 | > 50 µM (inactive)
100 | CCN1C(=O)C2(C(C#N)=C(N)Oc3n[nH]c(C(C)C)c32)c2ccccc21 (stereo not given) | > 50 µM (inactive)
101 | CCOc1ccc(NS(=O)(=O)c2ccc3c(c2)CCN3C(=O)CCC(=O)O)cc1 | > 50 µM (inactive)
102 | CCOc1ccc(NC(=O)CN2C(=O)COc3ccc(Cl)cc32)cc1 | > 50 µM (inactive)
103 | CCCCOc1ccc(OCCSc2nc3ccccc3n2CC(=O)O)cc1 | > 50 µM (inactive)
104 | CC1(C)CNC(=O)C=C(c2ccccc2)C1 | > 50 µM (inactive)
105 | OCCNc1c2ccccc2nc2ccccc12 | 3.94 µM
